According to ChEMBL document CHEMBL1201862, “PubChem BioAssay data set” (2004):
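Grown in 96-well plates, cells were treated for 48 hours with each compound at five concentrations. Insufficient inhibition: endpoint recorded as highest concentration tested. Abbreviation: GI50, concentration required for 50% inhibition of growth.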 Active and inactive are the calls of the source. Cut-off read from the data, not from the text of the source: active = GI50 up to about 1.1 µM and inactive = higher.

Experiments:
Assay in all cases: NCI-60 cell line screen, 48 h
[1] = tested on: SN12C
[2] = tested on: COLO 205
[3] = tested on: ACHN
[4] = tested on: XF498
[5] = tested on: CAKI-1
[6] = tested on: MDA-N
[7] = tested on: SR
[8] = tested on: LOX IMVI
[9] = tested on: SK-MEL-5
[10] = tested on: DU-145
[11] = tested on: SK-OV-3
[12] = tested on: RPMI-8226
[13] = tested on: HCT-15
[14] = tested on: Malme-3M
[15] = tested on: A498
[16] = tested on: HCT-116
[17] = tested on: HOP-62
[18] = tested on: IGROV-1
[19] = tested on: UACC-257
[20] = tested on: Hs-578T

Row | Compound | GI50 [1] | GI50 [2] | GI50 [3] | GI50 [4] | GI50 [5] | GI50 [6] | GI50 [7] | GI50 [8] | GI50 [9] | GI50 [10] | GI50 [11] | GI50 [12] | GI50 [13] [µM] | GI50 [14] | GI50 [15] | GI50 [16] | GI50 [17] | GI50 [18] | GI50 [19] | GI50 [20]
1 | CN(C)CCC(=O)N1C/C(=C\c2ccc(Cl)c(Cl)c2)C(=O)/C(=C/c2ccc(Cl)c(Cl)c2)C1 | 0.207 µM (active) | 0.223 µM (active) | 0.329 µM (active) | 1.12 µM (active) | 0.394 µM (active) | 0.213 µM (active) | 0.0746 µM (active) | 0.1 µM (active) | 0.453 µM (active) | 0.224 µM (active) | 1.86 µM (inactive) | 0.074 µM (active) | 0.184 | 0.64 µM (active) | 1.32 µM (inactive) | 0.119 µM (active) | 0.303 µM (active) | 0.434 µM (active) | 1.1 µM (active) | 0.257 µM (active)
2 | NC(=O)c1cc(C2OC(CO)C(O)C2O)nn1-c1ccc([N+](=O)[O-])cc1 (stereo unspecified) | > 100 µM (inactive) | > 100 µM (inactive) | > 100 µM (inactive) | > 100 µM (inactive) | > 100 µM (inactive) | – | – | > 100 µM (inactive) | > 100 µM (inactive) | – | > 100 µM (inactive) | 88.9 µM (inactive) | > 100 | > 100 µM (inactive) | > 100 µM (inactive) | > 100 µM (inactive) | > 100 µM (inactive) | > 100 µM (inactive) | > 100 µM (inactive) | –
3 | CC(=O)C1=CCC2c3[nH]c4ccccc4c3CCN2C1 (stereo unspecified) | 68.4 µM (inactive) | > 100 µM (inactive) | 78 µM (inactive) | 62.5 µM (inactive) | – | – | 31.8 µM (inactive) | 58.7 µM (inactive) | 50 µM (inactive) | – | 21.6 µM (inactive) | – | 50.8 | 72.1 µM (inactive) | > 100 µM (inactive) | 45 µM (inactive) | > 100 µM (inactive) | 61.1 µM (inactive) | > 100 µM (inactive) | –
4 | CCOc1ccc(NC2=NC(=O)C(CC(=O)Nc3ccc(Cl)cc3Cl)S2)cc1 (stereo unspecified) | > 100 µM (inactive) | > 100 µM (inactive) | > 100 µM (inactive) | > 100 µM (inactive) | > 100 µM (inactive) | – | – | > 100 µM (inactive) | > 100 µM (inactive) | – | > 100 µM (inactive) | > 100 µM (inactive) | > 100 | > 100 µM (inactive) | 68.7 µM (inactive) | – | > 100 µM (inactive) | > 100 µM (inactive) | > 100 µM (inactive) | –
5 | C[C@@H]1O[C@@H](O[C@H]2[C@H](Oc3cc(O)c4c(=O)cc(-c5ccc(O)cc5)oc4c3)O[C@H](CO)[C@@H](O)[C@@H]2O)[C@H](O)[C@H](O)[C@H]1O [RHOIFOLIN] | > 100 µM (inactive) | > 100 µM (inactive) | > 100 µM (inactive) | > 100 µM (inactive) | > 100 µM (inactive) | – | – | > 100 µM (inactive) | > 100 µM (inactive) | – | > 100 µM (inactive) | > 100 µM (inactive) | > 100 | > 100 µM (inactive) | > 100 µM (inactive) | > 100 µM (inactive) | > 100 µM (inactive) | > 100 µM (inactive) | > 100 µM (inactive) | –
6 | O=C(O)c1ccc(/N=N/c2cc(S(=O)(=O)O)c3cccnc3c2O)cc1 | > 100 µM (inactive) | > 100 µM (inactive) | > 100 µM (inactive) | > 100 µM (inactive) | > 100 µM (inactive) | – | > 100 µM (inactive) | > 100 µM (inactive) | > 100 µM (inactive) | – | > 100 µM (inactive) | > 100 µM (inactive) | > 100 | > 100 µM (inactive) | > 100 µM (inactive) | > 100 µM (inactive) | > 100 µM (inactive) | > 100 µM (inactive) | > 100 µM (inactive) | –
7 | CCOC(=O)N[C@H]1CCc2cc(O)c(OC)c(OC)c2-c2ccc(SC)c(=O)cc21 | 0.046 µM (active) | 0.141 µM (active) | 0.069 µM (active) | 0.0261 µM (active) | 0.0266 µM (active) | – | 0.0345 µM (active) | 0.0234 µM (active) | 0.0127 µM (active) | – | 0.24 µM (active) | < 0.0135 µM (active) | 0.0323 | 0.0111 µM (active) | 0.0208 µM (active) | < 0.0138 µM (active) | 0.0386 µM (active) | 0.0479 µM (active) | < 0.0491 µM (active) | –
